Holding throughout (assay type): in vivo, mouse
Assay [1] has as its system plasma cells. Briefly: Spleen plasma cells by flow cytometry in NZM mice. The protocol:
Antibodies used for flow cytometry consisted of anti-mouse CD138-APC (eBioscience, San Diego, Calif.), anti-mouse CD19-FITC (eBioscience, San Diego, Calif.), anti-mouse CD38-PE (eBioscience, San Diego, Calif.) and anti-mouse CD45R/B220-Cyc (eBioscience, San Diego, Calif.), Rat IgG1-APC isotype control (eBioscience, San Diego, Calif.), Rat IgG2a-PE isotype control (eBioscience, San Diego, Calif.). All samples were analyzed using an Accuri C6 Flow Cytometer. Complete media was used for all experiments involving the ex vivo culture of splenocytes for all Elispot experiments. Complete media consisted of RPMI1640 (Cellgro, Manassas, Va.), plus 1% Pen-Strep (Cellgro, Manassas, Va.), 1% L-Gln (Cellgro, Manassas, Va.), 1% NEAA (Cellgro, Manassas, Va.), β-ME (Cellgro, Manassas, Va.), plus 10% FBS (Cellgro, Manassas, Va.).
Washed, RBC-lysed splenocytes were stained for plasma cell markers as previously used in published reports (Neubert, Meister et al. 2008). As used herein the term “plasma cell” will refer to the following immunophenotype definition: Plasma cells were defined as live CD19-negative, CD45R/B220-negative, CD138-positive, CD38-positive events for the MRL/lpr model. A total of 200,000-500,000 events were collected per tube/sample. […]
(§1) Age mated, female, NZM or NZW/LacJ, mice were matured for the study of lupus nephritis for a total of 7 months or 210 days at which time urine was collected for proteinuria detection. Mice with 0.5-1.0 mg/ml of urine protein as determined by an optical density-based total protein precipitation assay and cross-checked for 30-300 mg/dl of protein as determined by a stick assay were considered proteinuria positive and selected for study entry. […] End-stage lupus nephritis was evaluated by histopathology and scored by a board certified pathologist for the assessment of total renal damage in diseased animals using the scoring method described by Smith et al (Smith, Dong et al. 2007). […]

Assay [2] relates to anti-Smith antigen antibodies. In words: Serum anti-Smith antigen ANA ELISA in NZM mice. The note with it: p<0.05. The source says:
The measurement of anti-dsDNA and anti-Smith antigen antibodies was done by an in-house generated custom ELISA assay. Chromatin coated plates were purchased from Inova Diagnostics, Inc. Purified bovine thymus dsDNA (Sigma, St. Louis, […].) or purified bovine Smith antigen (GenWay, San Diego, Calif.) were used as coating antigen for the detection of anti-dsDNA and anti-Smith Ag antibodies respectively. Coated plates were washed with Borate Sulfate Saline (BSS) and blocked with BSS containing 1% Bovine Serum Albumin (BSA) and 0.1% Tween-20 detergent. Standard curves were generated using mouse anti-chromatin antibody (Sigma, 2B1) or 25 week old MRL/lpr serum. Mouse anti-dsDNA antibody (Abcam, Cambridge, Mass.), or mouse anti-Smith antigen antibody (Abcam) were used as standards for each assay. […] Developed plates were read using a Victor-X4 spectrophotometer reading at […] with a reference wavelength of 570 nm. […]
Age mated, female, NZM or NZW/LacJ, mice were matured for the study of lupus nephritis for a total of 7 months or 210 days at which time urine was collected for proteinuria detection. Mice with 0.5-1.0 mg/ml of urine protein as determined by an optical density-based total protein precipitation assay and cross-checked for 30-300 mg/dl of protein as determined by a stick assay were considered proteinuria positive and selected for study entry. […]

Assay [3] relates to ASCs specific for chromatin. Briefly: Anti-chromatin antibody secreting B-cell Elispot, NZM spleen. Particulars: NZM mice. The protocol:
Age mated, female, NZM or NZW/LacJ, mice were matured for the study of lupus nephritis for a total of 7 months or 210 days at which time urine was collected for proteinuria detection. Mice with 0.5-1.0 mg/ml of urine protein as determined by an optical density-based total protein precipitation assay and cross-checked for 30-300 mg/dl of protein as determined by a stick assay were considered proteinuria positive and selected for study entry. Groups were normalized to contain a Gaussian distribution of proteinuria positive animals (i.e., ⅓ low proteinuria, ⅓ medium, ⅓ high) then randomized between groups before ear marking and taking baseline measures including urine and serum collections. A total of five mice from the total population were randomly selected for baseline kidney histology evaluation. Treatments and tests for each group are as described in FIG. 12. Briefly, with a minimum of 10 mice per group, COMPOUND A was administered at 100 mg/kg or 55 mg/kg, both twice a day and orally. […] Vehicle included 3% DMSO, 10% Solutol and 87% PBS. […] End-stage lupus nephritis was evaluated by histopathology and scored by a board certified pathologist for the assessment of total renal damage in diseased animals using the scoring method described by Smith et al (Smith, Dong et al. 2007). […] Day-98 or “end of treatment/study” represents 310 days of age for the NZM animals.

In assay [4] the test system is NZM mice. Briefly: Lung histopathology in NZM mice. How it is done:
For histological analyses, the left kidney and lung (NZM model only) from each animal was removed and fixed in 10% buffered neutral 10% formalin (EMD) for 48 hours on an orbital rocker at 25° C., then washed overnight with running dH2O and stored in 70% ethanol at 4° C. until ready to be processed. Kidney stains used for histological analyses included hematoxylin and eosin (H&E), Periodic Acid Schiff (PAS) and Trichrome stains (Wistar Institute, Philadelphia, Pa.). All 3 stained sections were used by the pathologist for scoring purposes. All histological scoring was performed blinded and by an independent board certified veterinary medical pathologist (Julie Engiles, VMD, DACVP; University of Pennsylvania). […]
as §1

This is an account of results in patent US9023853B2, “Janus kinase 2 (JAK2) inhibitor for the treatment of lupus” (Cephalon, Inc., priority 2010, dated 2015).

In the case of `CN1CCN(c2cccc(Nc3nc4c(-c5ccc(S(C)(=O)=O)cc5)cccn4n3)c2)CC1` [COMPOUND A, [8-(4-methanesulfonyl-phenyl)-[1,2,4]triazolo[1,5-a]pyridin-2-yl]-[3-(4-methyl-piperazin-1-yl)-phenyl]-amine], the “spleen plasma cells decrease compared to vehicle” value amounted to 57.6% in assay [1] (COMPOUND A 55 mg/kg) and 52.9% in assay [1] (COMPOUND A 100 mg/kg). In addition, the “anti-smith antigen ANAs” value in assay [2] (COMPOUND A treatment) is on record as “significantly reduced”. Further, the “ASCs specific for chromatin, decrease” value in assay [3] (COMPOUND A 55 mg/kg) was found to be 97.4%; in assay [3] (COMPOUND A 100 mg/kg), 100%. Besides, the lung infiltrates entry in assay [4] (COMPOUND A 55 mg/kg and 100 mg/kg, vs dexamethasone and vehicle) was “prevented lung infiltrates”.
Take `O=P1(N(CCCl)CCCl)NCCCO1` (stereo not shown) [CTX, cyclophosphamide, reference compound]: the “levels of spleen plasma cells” value in assay [1] (cyclophosphamide 50 mg/kg once weekly ip) is given as “the decrease was not significant”. Moreover, the “anti-smith antigen ANAs” value in assay [2] (CTX 50 mg/kg once weekly ip) is given as “significantly reduced”. For the same compound, the “ASCs specific for chromatin, decrease” value in assay [3] (CTX 50 mg/kg once weekly ip) came to 100%. Moreover, the lung infiltrates entry in assay [4] (CTX 50 mg/kg once weekly ip) is reported as “prevented lung infiltrates”.
